Values after ≈ are worked out from the molar mass of the structure shown.
What was measured:
[1] = tested on: Bacteroides fragilis; test: Antibacterial activity against Bacteroides fragilis by agar diffusion method; type: functional
[2] = tested on: Klebsiella; test: Antibacterial activity against Klebsiella by agar diffusion method; type: functional
[3] = tested on: Streptococcus pyogenes; test: Antibacterial activity against Streptococcus pyogenes by agar diffusion method; type: functional
[4] = Cmax in human at 0.75 g, po bid; details: in vivo
[5] = tested on: Escherichia coli; test: Antibacterial activity against Escherichia coli by agar diffusion method; type: functional
[6] = tested on: Haemophilus influenzae; test: Antibacterial activity against Haemophilus influenzae with horse blood by agar diffusion method; type: functional
[7] = AUC in human at 0.75 g, po bid; details: in vivo
[8] = tested on: Enterococcus; test: Antibacterial activity against Enterococcus by agar diffusion method; type: functional
[9] = Cmax in human at 0.2 g, po bid; type: ADME, organism-based; set-up: dose 0.2 g, route oral; details: in vivo
[10] = tested on: Clostridium perfringens; test: microbe, parasite or virus in culture
[11] = AUC in human at 0.2 g, po bid; type: ADME, organism-based; details: in vivo
[12] = tested on: Streptococcus pneumoniae; test: Antibacterial activity against Streptococcus pneumoniae by agar diffusion method; type: functional
[13] = Half life in human at 0.2 g, po bid; type: ADME, organism-based; details: in vivo
[14] = tested on: Pseudomonas aeruginosa; test: Antibacterial activity against Pseudomonas aeruginosa by agar diffusion method; type: functional
[15] = Protein binding in human at 0.2 g, po bid; type: ADME, organism-based; details: in vivo, read-out: PB (converted)
[16] = tested on: Staphylococcus aureus; test: Antibacterial activity against Staphylococcus aureus by agar diffusion method; type: functional
[17] = organism: Homo sapiens; test: Phototoxicity in human; type: organism-based; details: in vivo
[18] = Protein binding in human at 0.6 g, po; type: ADME; details: in vivo, read-out: PB (converted)
[19] = Cmax in human at 0.6 g, po; type: ADME; set-up: dose 0.6 g, route oral; details: in vivo
[20] = Half life in human at 0.6 g, po; type: ADME; details: in vivo
[21] = AUC in human at 0.6 g, po; type: ADME; details: in vivo
[22] = Protein binding in human at 0.4 g, po; type: ADME; details: in vivo; for fraction unbound: read-out: PB (converted)
[23] = Half life in human at 0.4 g, po; type: ADME; details: in vivo
[24] = AUC in human at 0.4 g, po; type: ADME; details: in vivo
[25] = Cmax in human at 0.4 g, po; type: ADME; set-up: dose 0.4 g, route oral; details: in vivo
[26] = Cmax in human at 0.32 g, po; type: ADME; set-up: dose 0.32 g, route oral; details: in vivo
[27] = Protein binding in human at 0.32 g, po; type: ADME; details: in vivo, read-out: PB (converted)
[28] = Half life in human at 0.32 g, po; type: ADME; details: in vivo
[29] = AUC in human at 0.32 g, po; type: ADME; details: in vivo
[30] = Toxicity in human assessed as gastrointestinal effect
[31] = Cardiotoxicity in human QTc prolongation; type: toxicity
[32] = Toxicity in human assessed as hepatic eosinophilia effect
[33] = Toxicity in human assessed as arthralgia effect
[34] = Toxicity in human assessed as CNS effect by measuring alteration in mentation

Row | Compound | MIC90 [1] [µg/mL] | MIC90 [2] [µg/mL] | MIC90 [3] [µg/mL] | MIC90 [5] [µg/mL] | MIC90 [6] [µg/mL] | MIC90 [8] [µg/mL] | MIC90 [10] [µg/mL] | MIC90 [12] [µg/mL] | MIC90 [14] [µg/mL] | MIC90 [16] [µg/mL] | half-life [23] [h] | AUC [24] [ng·h/mL] | Cmax [25] [ng/mL] | also measured
1 | O=C(O)c1cn(C2CC2)c2cc(N3CCNCC3)c(F)cc2c1=O [CIPROFLOXACIN] | 16 (≈ 48.3 µM) | 0.25 (≈ 0.754 µM) | 1 (≈ 3.02 µM) | 0.03 (≈ 0.0905 µM) | 0.03 (≈ 0.0905 µM) | 4 (≈ 12.1 µM) |  |  |  |  |  |  |  | Cmax [4]: 3500 ng/mL; AUC [7]: 30000 ng·h/mL
2 | NC1CCN(c2c(F)cc3c(=O)c(C(=O)O)cn(C4CC4)c3c2Cl)C1 (configuration not stated) [CLINAFLOXACIN] | 0.25 (≈ 0.683 µM) | 0.03 (≈ 0.082 µM) | 0.06 (≈ 0.164 µM) | 0.01 (≈ 0.0273 µM) | 0.01 (≈ 0.0273 µM) | 0.25 (≈ 0.683 µM) | 0.12 (≈ 0.328 µM) | 0.12 (≈ 0.328 µM) | 0.5 (≈ 1.37 µM) | 0.06 (≈ 0.164 µM) |  |  |  | Cmax [9]: 1600 ng/mL; AUC [11]: 18000 ng·h/mL; half-life [13]: 6 h; fraction unbound [15]: 0.6; Activity [17]: > 10%
3 | CCn1cc(C(=O)O)c(=O)c2cc(F)c(N3CCNCC3)nc21 [ENOXACIN] | > 64 | 2 (≈ 6.24 µM) | > 64 | 0.25 (≈ 0.78 µM) | 0.12 (≈ 0.375 µM) | 8 (≈ 25 µM) | > 64 | 64 (≈ 200 µM) | > 64 | 2 (≈ 6.24 µM) |  |  |  | fraction unbound [18]: 0.4; Cmax [19]: 3700 ng/mL; half-life [20]: 2 h; AUC [21]: 29000 ng·h/mL
4 | C[C@H]1NCc2cc(-c3ccc4c(=O)c(C(=O)O)cn(C5CC5)c4c3OC(F)F)ccc21 [GARENOXACIN] | 1 (≈ 2.35 µM) | 0.5 (≈ 1.17 µM) | 0.25 (≈ 0.586 µM) | 0.06 (≈ 0.141 µM) | 0.03 (≈ 0.0704 µM) | 0.5 (≈ 1.17 µM) | 0.25 (≈ 0.586 µM) | 0.12 (≈ 0.281 µM) | 16 (≈ 37.5 µM) | 0.03 (≈ 0.0704 µM) | 15 | 59000 | 5800 | fraction unbound [22]: 0.13
5 | COc1c(N2CCNC(C)C2)c(F)cc2c(=O)c(C(=O)O)cn(C3CC3)c12 (configuration not stated) [GATIFLOXACIN] | 1 (≈ 2.66 µM) | 0.25 (≈ 0.666 µM) | 0.25 (≈ 0.666 µM) | 0.06 (≈ 0.16 µM) | 0.03 (≈ 0.0799 µM) | 1 (≈ 2.66 µM) | 0.5 (≈ 1.33 µM) | 0.25 (≈ 0.666 µM) | 4 (≈ 10.7 µM) | 0.25 (≈ 0.666 µM) | 12 | 33000 | 3800 | fraction unbound [22]: 0.8
6 | CO/N=C1\CN(c2nc3c(cc2F)c(=O)c(C(=O)O)cn3C2CC2)CC1CN (configuration not stated) [GEMIFLOXACIN] |  | 0.25 (≈ 0.642 µM) | 0.06 (≈ 0.154 µM) | 0.03 (≈ 0.077 µM) | 0.06 (≈ 0.154 µM) | 4 (≈ 10.3 µM) |  | 0.03 (≈ 0.077 µM) | 4 (≈ 10.3 µM) | 0.06 (≈ 0.154 µM) |  |  |  | Cmax [26]: 1000 ng/mL; fraction unbound [27]: 0.4; half-life [28]: 7 h; AUC [29]: 9000 ng·h/mL
7 | Cc1c(F)c(N2CCNC(C)C2)cc2c1c(=O)c(C(=O)O)cn2C1CC1 (configuration not stated) [GREPAFLOXACIN] | 8 (≈ 22.3 µM) | 0.12 (≈ 0.334 µM) | 1 (≈ 2.78 µM) | 0.06 (≈ 0.167 µM) | 0.01 (≈ 0.0278 µM) | 4 (≈ 11.1 µM) | 1 (≈ 2.78 µM) | 0.25 (≈ 0.696 µM) | 8 (≈ 22.3 µM) | 0.12 (≈ 0.334 µM) | 14 | 14000 | 1400 | Activity [30]: > 10%; protein-bound fraction ([22]; read-out: PB): 0.5; Activity [31]: 2.9%; Activity [32]: 0.006%; Activity [33]: 0.5 to 2%
8 | C[C@H]1COc2c(N3CCN(C)CC3)c(F)cc3c(=O)c(C(=O)O)cn1c23.C[C@H]1COc2c(N3CCN(C)CC3)c(F)cc3c(=O)c(C(=O)O)cn1c23.O [LEVOFLOXACIN] |  |  |  |  |  |  |  |  |  |  |  |  |  | Activity [34]: 0.026%; Activity [33]: 0.5 to 2%

From ChEMBL document CHEMBL4354782, “Quinolone antibiotics” (Medchemcomm, 2019)
